# Source: patent US11524966B1 (Valo Early Discovery, Inc., priority 2017, dated 2022)
# Biological target: T1, USP25 (USP25-His6, Boston Biochem E-546) (Homo sapiens, UniProt Q9UHP3)
# T1 construct: His6; purchased Boston Biochem E-546
# T1 sequence (Q9UHP3 1-1055): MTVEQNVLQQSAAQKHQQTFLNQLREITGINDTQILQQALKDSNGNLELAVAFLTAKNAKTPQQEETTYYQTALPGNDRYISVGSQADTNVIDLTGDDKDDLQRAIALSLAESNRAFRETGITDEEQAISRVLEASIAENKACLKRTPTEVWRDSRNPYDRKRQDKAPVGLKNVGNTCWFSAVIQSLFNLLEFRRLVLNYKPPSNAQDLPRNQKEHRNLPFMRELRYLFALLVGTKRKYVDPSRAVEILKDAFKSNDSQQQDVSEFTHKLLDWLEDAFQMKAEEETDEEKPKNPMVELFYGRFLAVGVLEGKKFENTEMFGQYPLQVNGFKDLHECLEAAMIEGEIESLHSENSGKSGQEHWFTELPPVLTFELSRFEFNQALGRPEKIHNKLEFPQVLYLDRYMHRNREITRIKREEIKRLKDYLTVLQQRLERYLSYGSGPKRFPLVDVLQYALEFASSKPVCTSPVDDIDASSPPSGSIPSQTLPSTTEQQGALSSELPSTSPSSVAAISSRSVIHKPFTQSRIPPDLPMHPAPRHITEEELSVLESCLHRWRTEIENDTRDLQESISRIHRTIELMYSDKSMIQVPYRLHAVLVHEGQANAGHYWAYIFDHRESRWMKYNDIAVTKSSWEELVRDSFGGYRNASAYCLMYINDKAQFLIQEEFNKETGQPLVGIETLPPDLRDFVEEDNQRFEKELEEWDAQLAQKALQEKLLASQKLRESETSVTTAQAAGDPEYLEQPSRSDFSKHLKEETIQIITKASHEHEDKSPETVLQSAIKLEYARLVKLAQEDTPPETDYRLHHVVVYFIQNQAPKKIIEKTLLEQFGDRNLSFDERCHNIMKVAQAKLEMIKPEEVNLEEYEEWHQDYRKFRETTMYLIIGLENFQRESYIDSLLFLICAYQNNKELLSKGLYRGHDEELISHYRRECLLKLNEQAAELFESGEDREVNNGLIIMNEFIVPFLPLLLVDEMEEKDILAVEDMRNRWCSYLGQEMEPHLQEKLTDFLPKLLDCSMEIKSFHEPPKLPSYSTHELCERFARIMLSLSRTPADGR
# Assay: Ubiquitin-Rhodamine 110 Assay for USP25 Activity, Example A-2
# Format: biochemical
# Conditions: Ubiquitin-Rhodamine 110 assay, Example A-2; read-out: USP25 A-2 IC50 range
# Summary of the method: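 Cleavage of ubiquitin-rhodamine 110 (25 nM, well below Km) by His-tagged USP25 at 75 pM is measured fluorimetrically after 45 min at room temperature and acid quench. Inhibitors are preincubated with enzyme for 30 minutes. IC50 values come from four-parameter logistic curve fitting.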
row,Structure (SMILES),IC50 [nM]
1,"Cc1ccc2c(N)c(C(=O)N[C@H]3CCc4nc(N5C[C@@H](N)[C@@H](C(F)F)C5)ccc4C3)sc2n1 [Example 346, 3-amino-N-[(6S)-2-[(3S,4S)-3-amino-4-(difluoromethyl)pyrrolidin-1-yl]-5,6,7,8-tetrahydroquinolin-6-yl]-6-methylthieno[2,3-b]pyridine-2-carboxamide]",200 to 2000
2,"Cc1ccc2c(N)c(C(=O)N[C@H]3CCc4nc(N5C[C@H](C(F)F)[C@@H](N)C5)ccc4C3)sc2n1 [Example 347, 3-amino-N-[(6S)-2-[(3R,4S)-3-amino-4-(difluoromethyl)pyrrolidin-1-yl]-5,6,7,8-tetrahydroquinolin-6-yl]-6-methylthieno[2,3-b]pyridine-2-carboxamide]",200 to 2000
3,"COC[C@H]1CN(c2ccc3c(n2)OC[C@H](NC(=O)c2sc4nc(C)cc(C)c4c2N)C3)C[C@H]1N [Example 349, 3-amino-N-[(3R)-7-[(3S,4S)-3-amino-4-(methoxymethyl)pyrrolidin-1-yl]-2H,3H,4H-pyrano[2,3-b]pyridin-3-yl]-4,6-dimethylthieno[2,3-b]pyridine-2-carboxamide]",200 to 2000
4,"CN[C@H]1CN(c2ccc3c(c2)OC[C@H](NC(=O)c2sc4nc(C)ccc4c2N)C3)C[C@@H]1O [Example 350, 3-amino-N-[(3R)-7-[(3S,4S)-3-hydroxy-4-(methylamino)pyrrolidin-1-yl]-3,4-dihydro-2H-1-benzopyran-3-yl]-6-methylthieno[2,3-b]pyridine-2-carboxamide]",200 to 2000
5,"CCn1ccc2cc(C(=O)N[C@H]3CCc4nc(N5C[C@H](OC)[C@@H](N)C5)ccc4C3)cnc21 [Example 353, N-[(6S)-2-[(3S,4S)-3-amino-4-methoxypyrrolidin-1-yl]-5,6,7,8-tetrahydroquinolin-6-yl]-1-ethyl-1H-pyrrolo[2,3-b]pyridine-5-carboxamide]",> 2000
6,"Cc1cc(C)c2c(N)c(C(=O)N[C@H]3CCc4nc(N5CC6CCC(C5)N6)ccc4C3)sc2n1 [Example 354, 3-amino-N-[(6S)-2-{3,8-diazabicyclo[3.2.1]octan-3-yl}-5,6,7,8-tetrahydroquinolin-6-yl]-4,6-dimethylthieno[2,3-b]pyridine-2-carboxamide]",200 to 2000
7,"CCn1cc(Cl)c2cc(C(=O)N[C@H]3COc4c(F)c(N5CC6CCC(C5)N6)cc(F)c4C3)nnc21 [Example 355, 5-chloro-N-[(3R)-7-{3,8-diazabicyclo[3.2.1]octan-3-yl}-5,8-difluoro-3,4-dihydro-2H-1-benzopyran-3-yl]-7-ethyl-7H-pyrrolo[2,3-c]pyridazine-3-carboxamide]",200 to 2000
8,"CCn1cc(Cl)c2cc(C(=O)N[C@H]3COc4c(C#N)c(N5CC6CCC(C5)N6)cc(F)c4C3)nnc21 [Example 356, 5-chloro-N-[(3R)-8-cyano-7-{3,8-diazabicyclo[3.2.1]octan-3-yl}-5-fluoro-3,4-dihydro-2H-1-benzopyran-3-yl]-7-ethyl-7H-pyrrolo[2,3-c]pyridazine-3-carboxamide]",200 to 2000
9,"Cc1ccc2c(N)c(C(=O)N[C@H]3CCc4nc(N5C[C@H](N)[C@H](OC(C)(F)F)C5)ccc4C3)sc2n1 [Example 357, 3-amino-N-[(6S)-2-[(3S,4R)-3-amino-4-(1,1-difluoroethoxy)pyrrolidin-1-yl]-5,6,7,8-tetrahydroquinolin-6-yl]-6-methylthieno[2,3-b]pyridine-2-carboxamide]",200 to 2000
10,"Cc1ccc2c(N)c(C(=O)N[C@H]3CCc4nc(N5C[C@@H](N)[C@@H](OC(C)(F)F)C5)ccc4C3)sc2n1 [Example 358, 3-amino-N-[(6S)-2-[(3R,4S)-3-amino-4-(1,1-difluoroethoxy)pyrrolidin-1-yl]-5,6,7,8-tetrahydroquinolin-6-yl]-6-methylthieno[2,3-b]pyridine-2-carboxamide]",> 2000
11,"Cc1ccc2c(N)c(C(=O)N[C@H]3CCc4nc(N5C[C@H](N)[C@@H](C(F)(F)F)C5)ccc4C3)sc2n1 [Example 363, 3-amino-N-[(6S)-2-[(3R,4S)-3-amino-4-(trifluoromethyl)pyrrolidin-1-yl]-5,6,7,8-tetrahydroquinolin-6-yl]-6-methylthieno[2,3-b]pyridine-2-carboxamide]",200 to 2000
12,"Cc1cnc2c(N)c(C(=O)N[C@H]3CCc4nc(N5C[C@H](N)C6(COC6)C5)ccc4C3)sc2n1 [Example 365, 7-amino-N-[(6S)-2-[(8R)-8-amino-2-oxa-6-azaspiro[3.4]octan-6-yl]-5,6,7,8-tetrahydroquinolin-6-yl]-3-methylthieno[2,3-b]pyrazine-6-carboxamide]",200 to 2000
13,"Cc1cnc2c(N)c(C(=O)N[C@H]3CCc4nc(N5C[C@@H](N)C6(COC6)C5)ccc4C3)sc2n1 [Example 366, 7-amino-N-[(6S)-2-[(8S)-8-amino-2-oxa-6-azaspiro[3.4]octan-6-yl]-5,6,7,8-tetrahydroquinolin-6-yl]-3-methylthieno[2,3-b]pyrazine-6-carboxamide]",> 2000
14,"Cc1ccc2c(N)c(C(=O)N[C@H]3COc4cc(N5CC[C@H](N)C5)ccc4C3)sc2n1 [Example 369, 3-amino-N-[(3R)-7-[(3S)-3-aminopyrrolidin-1-yl]-3,4-dihydro-2H-1-benzopyran-3-yl]-6-methylthieno[2,3-b]pyridine-2-carboxamide]",50 to 200
15,"Cc1ccc2c(N)c(C(=O)N[C@H]3CCc4nc(N5C[C@H](N)[C@]6(CCCO6)C5)ccc4C3)sc2n1 [Example 390, 3-amino-N-[(6S)-2-[(5S,9S)-9-amino-1-oxa-7-azaspiro[4.4]nonan-7-yl]-5,6,7,8-tetrahydroquinolin-6-yl]-6-methylthieno[2,3-b]pyridine-2-carboxamide]",> 2000
16,"Cc1ccc2c(N)c(C(=O)N[C@H]3CCc4nc(N5C[C@@H](N)[C@]6(CCCO6)C5)ccc4C3)sc2n1 [Example 391, 3-amino-N-[(6S)-2-[(5S,9R)-9-amino-1-oxa-7-azaspiro[4.4]nonan-7-yl]-5,6,7,8-tetrahydroquinolin-6-yl]-6-methylthieno[2,3-b]pyridine-2-carboxamide]",200 to 2000
17,"Cc1ccc2c(N)c(C(=O)N[C@H]3CCc4nc(N5C[C@@H](N)[C@@]6(CCCO6)C5)ccc4C3)sc2n1 [Example 392, 3-amino-N-[(6S)-2-[(5R,9R)-9-amino-1-oxa-7-azaspiro[4.4]nonan-7-yl]-5,6,7,8-tetrahydroquinolin-6-yl]-6-methylthieno[2,3-b]pyridine-2-carboxamide]",> 2000
18,"Cc1ccc2c(N)c(C(=O)N[C@H]3CCc4nc(N5C[C@H](N)[C@@]6(CCCO6)C5)ccc4C3)sc2n1 [Example 393, 3-amino-N-[(6S)-2-[(5R,9S)-9-amino-1-oxa-7-azaspiro[4.4]nonan-7-yl]-5,6,7,8-tetrahydroquinolin-6-yl]-6-methylthieno[2,3-b]pyridine-2-carboxamide]",> 2000
19,"Cc1ccc2c(N)c(C(=O)N[C@H]3COc4cc(N5CC6CNC[C@](C)(C5)O6)cc(F)c4C3)sc2n1 [Example 413, 3-amino-N-[(3R)-5-fluoro-7-[(1R)-1-methyl-9-oxa-3,7-diazabicyclo[3.3.1]nonan-3-yl]-3,4-dihydro-2H-1-benzopyran-3-yl]-6-methylthieno[2,3-b]pyridine-2-carboxamide]",200 to 2000
20,"Cc1ccc2c(N)c(C(=O)N[C@H]3COc4cc(N5CC6CNC[C@@](C)(C5)O6)cc(F)c4C3)sc2n1 [Example 414, 3-amino-N-[(3R)-5-fluoro-7-[(1S)-1-methyl-9-oxa-3,7-diazabicyclo[3.3.1]nonan-3-yl]-3,4-dihydro-2H-1-benzopyran-3-yl]-6-methylthieno[2,3-b]pyridine-2-carboxamide]",200 to 2000
